# Source: patent US12472214B2, “Bacterial strains, the compositions thereof and use thereof in a method for the treatment of vitamin D deficiency, and disorders associated therewith” (priority 2020, dated 2025)
# What was measured:
# [1] = In vivo murine study: 25(OH)D in serum by ELISA (bioavailability of vitamin D); parameters: species or system mice (Cd1); settings: mice; one-week daily administration (groups 3, 5, 6)
# Description: Mice (8-week old adult male Cd1) were enclosure-adapted and fed on a conventional diet. Mice were housed in cages and kept in a temperature-controlled environment (22±2° C.) with a 12-hour light/dark cycle with food for regular chow and tap water supplied ad libitum. After one week of acclimatisation, the animals were then randomly divided into 6 experimental groups of 6 mice each and each group was randomly assigned to one of the scheduled treatments (Table 1).
# The strain Lactobacillus paracasei DG® CNCM I-1572 (in short, L paracasei DG®) was sub-cultured in MRS agar and a single colony was inoculated into culture broth and incubated for 18 hours at 37° C. under microaerophilic conditions. […] The optical density (OD 600 nm) was then measured and the suspension was diluted to OD=1.00. […] The decimal count of aliquots on selective medium allowed to quantify the live cell concentration equal to 1.6×10^9 CFU/ml of suspension (2.4×10^8 CFU/aliquot). […]
# Mice were sacrificed 3 hours after the end of administration following fluorane anaesthesia and subsequent collection of blood by means of cardiac puncture and removal of the terminal ileum. […] The terminal ileum was first washed with PBS and then subjected to the collection of mucosa and the subsequent freezing in liquid nitrogen. mRNA was then extracted for the quantification of the expression of the vitamin D receptor at mucosal level. […]
# [2] = tested on: vitamin D receptor VDR; experiment: In vivo murine study: quantification of vitamin D receptor mRNA in ileal mucosa (quantitative PCR); parameters: species or system mice (Cd1); settings: mice
# Description: Mice were sacrificed 3 hours after the end of administration following fluorane anaesthesia and subsequent collection of blood by means of cardiac puncture and removal of the terminal ileum. The blood was centrifuged for the separation of serum which was then frozen until the subsequent dose of vitamin D3, in the form of 25-hydroxy-vitamin D (abbreviated as […] 25(OH)D). The terminal ileum was first washed with PBS and then subjected to the collection of mucosa and the subsequent freezing in liquid nitrogen. mRNA was then extracted for the quantification of the expression of the vitamin D receptor at mucosal level.
# The terminal ileum was first washed with PBS and then subjected to the collection of mucosa and the subsequent freezing in liquid nitrogen. mRNA was then extracted for the quantification of the expression of the vitamin D receptor at mucosal level. From an operational point of view, total RNA extraction from the mucosa was performed first, then a 30 ng aliquot of total RNA was reverse transcribed to cDNA and then subjected to a quantitative PCR with primers for the vitamin D receptor VDR (described by Wu et al. 2010). Below is the summary of the sequence of primers: […]
# RT-PCR analyses were also conducted using an “absolute” negative control and a housekeeping gene to normalise the results obtained (e.g. β-actin).
structure (smiles),measurement,setting,value
"C=C1CC[C@H](O)C/C1=C/C=C1\CCC[C@]2(C)[C@@H]([C@H](C)CCCC(C)C)CC[C@@H]12 [vitamin D3, cholecalciferol]",change in serum levels of 25(OH)D versus treatment-free control group (statistical significance),[1],did not generate any statistically significant change
same,vitamin D receptor mRNA expression level in ileal mucosa versus treatment-free control,"[2]; one-week daily administration (groups 3, 5, 6)",even more marked decrease
same,vitamin D receptor mRNA expression level in ileal mucosa versus treatment-free control,[2]; vitamin D3 single dose (groups 2 and 4),statistically significant decrease
